Our source for the EC50 values is US20240166652A1, “MODULATORS OF THE INTEGRATED STRESS PATHWAY” (Calico Life Sciences LLC, priority 2017, published 2024).

What is called EC50 is the concentration that produces a half-maximal response.

This test concerns ATF4 luciferase reporter in HEK293T cells. Briefly: ATF4-Luc assay (ATF4 luciferase reporter, tunicamycin-treated HEK293T cells). Type of test: cell-based, human. Conditions: Homo sapiens, HEK-293T; HEK293T cells carrying the ATF4 luciferase reporter, 1 μg/mL tunicamycin, 7 hours. Background: In a reporter assay the amount or activity of a reporter protein is the signal.

Consider `O=C(COc1ccc(OC(F)(F)F)c(F)c1)NC12CCC(NC(=O)COc3ccc4c(c3)OC(F)(F)O4)(CC1)[C@@H](O)C2` [Compound 760, 2-[(2,2-difluoro-2H-1,3-benzodioxol-5-yl)oxy]-N-[(2S)-4-{2-[3-fluoro-4-(trifluoromethoxy)phenoxy]acetamido}-2-hydroxybicyclo[2.2.2]octan-1-yl]acetamide], for which the half-maximal effective concentration (EC50) was less than 10 nM. As to `COc1cc(Cl)ccc1OCC(=O)NC12CC(NC(=O)COc3ccc(Cl)c(F)c3)(C1)C2` [Compound 412, 2-(4-chloro-3-fluorophenoxy)-N-{3-[2-(4-chloro-2-methoxyphenoxy)acetamido]bicyclo[1.1.1]pentan-1-yl}acetamide], the EC50 lay in the range of 50 to 250 nM. To `Cc1n[nH]c2cc(OCC(=O)NC34CC(NC(=O)COc5ccc(Cl)c(F)c5)(C3)C4)ccc12` [Compound 184, 2-(4-chloro-3-fluorophenoxy)-N-(3-{2-[(3-methyl-1H-indazol-6-yl)oxy]acetamido}bicyclo[1.1.1]pentan-1-yl)acetamide] belongs 50 to 250 nM. As to `O=C(COc1ccc(Cl)c(F)c1)NC12CCC(NC(=O)COc3ccc(Cl)c(F)c3)(CC1)C(CO)C2` (stereo not drawn) [Compound 568, N,N′-[2-(hydroxymethyl)bicyclo[2.2.2]octane-1,4-diyl]bis[2-(4-chloro-3-fluorophenoxy)acetamide]], the EC50 is less than 10 nM. Consider `O=C(COc1ccc(Cl)c(F)c1)NC12CC(NCC(O)c3ccc(Cl)cc3)(C1)C2` (stereo not drawn) [Compound 290, 2-(4-chloro-3-fluorophenoxy)-N-(3-{[2-(4-chlorophenyl)-2-hydroxyethyl]amino}bicyclo[1.1.1]pentan-1-yl)acetamide], for which the concentration for a half-maximal effect (EC50) lay within 500 to 2000 nM. To `COc1cc(OCC(=O)NC23CCC(NC(=O)COc4ccc(Cl)c(F)c4)(CC2)C[C@@H]3O)nc(SC)n1` [Compound 497, 2-(4-chloro-3-fluorophenoxy)-N-[(3S)-3-hydroxy-4-(2-{[6-methoxy-2-(methylsulfanyl)pyrimidin-4-yl]oxy}acetamido)bicyclo[2.2.2]octan-1-yl]acetamide] belongs 500 to 2000 nM; to `O=C(COc1ccc(Cl)c(F)c1)NC12CCC(NC(=O)COc3ccc(Cl)c(F)c3)(CC1)[C@@H](O)[C@H]2Br` (racemic) [Compound 571, rac-N,N′-[(2S,3R)-2-bromo-3-hydroxybicyclo[2.2.2]octane-1,4-diyl]bis[2-(4-chloro-3-fluorophenoxy)acetamide]], 10 to 50 nM; to `O=C(COc1ccc(Cl)c(F)c1)NC12CCC(NC(=O)COc3ccc4cn[nH]c4c3)(C1)C2` [Compound 187, 2-(4-chloro-3-fluorophenoxy)-N-(4-{2-[(1H-indazol-6-yl)oxy]acetamido}bicyclo[2.1.1]hexan-1-yl)acetamide], 50 to 250 nM. To `O=C(COc1ccc2c(c1)OC(F)(F)O2)NC12CCC(NC(=O)COc3ccc(Cl)c(Cl)c3)(CC1)C(=O)N2` [Compound 604, 2-(3,4-dichlorophenoxy)-N-(1-{2-[(2,2-difluoro-2H-1,3-benzodioxol-5-yl)oxy]acetamido}-3-oxo-2-azabicyclo[2.2.2]octan-4-yl)acetamide] belongs 10 to 50 nM. For `O=C(COc1ccc(Cl)cc1)NC12CC(NC(=O)COc3ccc(Cl)c(Cl)c3)(C1)C2` [Compound 117, 2-(4-chlorophenoxy)-N-{3-[2-(3,4-dichlorophenoxy)acetamido]bicyclo-[1.1.1]pentan-1-yl}acetamide], the half-maximal effective concentration (EC50) is less than 10 nM.

As to `N#Cc1cccc(COCC(=O)NC23CC(NC(=O)COc4ccc(Cl)c(F)c4)(C2)C3)c1` [Compound 138, 2-(4-chloro-3-fluorophenoxy)-N-(3-{2-[(3-cyanophenyl)methoxy]acetamido}-bicyclo[1.1.1]pentan-1-yl)acetamide], the EC50 lay in the range of 250 to 500 nM. To `O=C(COc1ccc(Cl)c(F)c1)N[C@@H]1C[C@H]2CC[C@@H](C1)[C@H]2NC(=O)COc1ccc(Cl)c(F)c1` [Compound 595, N,N′-[(1R,3s,5S,8r)-bicyclo[3.2.1]octane-3,8-diyl]bis[2-(4-chloro-3-fluorophenoxy)acetamide]] belongs greater than 2000 nM; to `Cc1ccc(OCC(=O)NC23CC(NC(=O)COc4ccc(Cl)c(F)c4)(C2)C3)c(Cl)n1` [Compound 237, 2-(4-chloro-3-fluorophenoxy)-N-(3-{2-[(2-chloro-6-methylpyridin-3-yl)oxy]acetamido}bicyclo[1.1.1]pentan-1-yl)acetamide], 50 to 250 nM; to `O=C(COc1ccc(Cl)c(F)c1)NC12CCC(NCc3nc4cc(F)c(F)cc4[nH]3)(CC1)C[C@@H]2O` [Compound 648, 2-(4-chloro-3-fluorophenoxy)-N-[(2S)-4-{[(5,6-difluoro-1H-benzimidazol-2-yl)methyl]amino}-2-hydroxybicyclo[2.2.2]octan-1-yl]acetamide], 10 to 50 nM. To `COC(=O)c1cc(OCC(=O)NC23CC(NC(=O)COc4ccc(Cl)c(F)c4)(C2)C3)ccc1Cl` [Compound 223, methyl 2-chloro-5-[2-({3-[2-(4-chloro-3-fluorophenoxy)acetamido]-bicyclo[1.1.1]pentan-1-yl}amino)-2-oxoethoxy]benzoate] belongs 500 to 2000 nM. To `COC(=O)c1ccc(OCC(=O)NC23CC(NC(=O)COc4ccc(Cl)c(F)c4)(C2)C3)cn1` [Compound 264, methyl 5-[2-({3-[2-(4-chloro-3-fluorophenoxy)acetamido]bicyclo-[1.1.1]pentan-1-yl}amino)-2-oxoethoxy]pyridine-2-carboxylate] belongs 500 to 2000 nM; to `O=C(COc1ccc(Cl)c(F)c1)NC12CCC(NC(=O)COc3ccc(Cl)c(F)c3)(CC1)C(NC1COC1)C2` (stereo not drawn) [Compound 722, N,N′-{2-[(oxetan-3-yl)amino]bicyclo[2.2.2]octane-1,4-diyl}bis[2-(4-chloro-3-fluorophenoxy)acetamide]], less than 10 nM. `CCCC1CC2(NC(=O)COc3ccc(Cl)c(F)c3)CCC1(NC(=O)COc1ccc(Cl)c(F)c1)CC2` (stereo not drawn) [Compound 723, N,N′-(2-propylbicyclo[2.2.2]octane-1,4-diyl)bis[2-(4-chloro-3-fluorophenoxy)acetamide]]: the concentration for a half-maximal effect (EC50) was 10 to 50 nM. As for `O=C(COc1ccc(Cl)c(F)c1)NC12CCC(NC(=O)COc3cc(F)c4cn[nH]c4c3)(CC1)[C@@H](O)C2` [Compound 738, 2-(4-chloro-3-fluorophenoxy)-N-[(3S)-4-{2-[(4-fluoro-1H-indazol-6-yl)oxy]acetamido}-3-hydroxybicyclo[2.2.2]octan-1-yl]acetamide], the concentration for a half-maximal effect (EC50) is less than 10 nM. To `O=C(COc1ccc(Cl)c(F)c1)NC12CCC(NC(=O)COc3ccc(Cl)c(F)c3)(CC1)C(O)C2` (stereo not drawn) [Compound 273, N,N′-(2-hydroxybicyclo[2.2.2]octane-1,4-diyl)bis[2-(4-chloro-3-fluorophenoxy)acetamide]] belongs less than 10 nM; to `O=C(COc1ccc(Cl)c(Cl)c1)NC12CCCC(NC(=O)COc3ccc(Cl)c(Cl)c3)(C1)C2` [Compound 209], greater than 2000 nM.
